# What was measured:
# [1] = degradation time in vivo of ω-oxidation-blocked fatty acid analogue; conditions: triple bond at the methyl end blocks ω-oxidation
# From the text: ω-oxidation is believed to be the main pathway for degradation of the fatty acid analogues as described with a block in the X position. Fatty acid analogues in which R′ was changed by introducing a triple bond at the methyl end of the fatty acid analogue block ω-oxidation. […] Thus, this modification finds use in embodiments of the technology to potentiate the effects of the β-oxidizable fa acid analogues by further slowing down their breakdown.
# [2] = tested on: mitochondrial β-oxidation in the liver; conditions: sulfur in 3, 5 or 7 position relative to carboxyl end; cited from earlier work
# acyl-CoA oxidase = conditions: substance alone; cited from earlier work
# [3] = moderate doses, within days of treatment; cited from earlier work
# PPARβ = biological target: T1, PPARβ (Homo sapiens, UniProt Q03181); conditions: cited from earlier work
# T1 sequence (Q03181 1-441): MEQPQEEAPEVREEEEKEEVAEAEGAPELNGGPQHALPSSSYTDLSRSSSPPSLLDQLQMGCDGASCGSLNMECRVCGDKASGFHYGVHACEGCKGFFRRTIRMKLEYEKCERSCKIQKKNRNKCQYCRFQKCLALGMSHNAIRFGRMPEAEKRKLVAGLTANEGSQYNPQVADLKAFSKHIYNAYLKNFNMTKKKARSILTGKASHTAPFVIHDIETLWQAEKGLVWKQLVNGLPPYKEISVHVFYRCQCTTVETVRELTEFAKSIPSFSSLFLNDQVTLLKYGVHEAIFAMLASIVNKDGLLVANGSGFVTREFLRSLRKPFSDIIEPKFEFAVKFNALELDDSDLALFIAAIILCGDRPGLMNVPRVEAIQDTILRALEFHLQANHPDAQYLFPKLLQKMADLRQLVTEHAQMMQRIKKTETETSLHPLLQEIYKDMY
# [4] = TTA alone; cited from earlier work
# interleukin-2 = conditions: cited from earlier work
# cancer cell lines = conditions: many cancer cell lines; cited from earlier work
# PPARγ = biological target: T2, PPARγ (Homo sapiens, UniProt P37231); conditions: cited from earlier work
# T2 sequence (P37231 1-505): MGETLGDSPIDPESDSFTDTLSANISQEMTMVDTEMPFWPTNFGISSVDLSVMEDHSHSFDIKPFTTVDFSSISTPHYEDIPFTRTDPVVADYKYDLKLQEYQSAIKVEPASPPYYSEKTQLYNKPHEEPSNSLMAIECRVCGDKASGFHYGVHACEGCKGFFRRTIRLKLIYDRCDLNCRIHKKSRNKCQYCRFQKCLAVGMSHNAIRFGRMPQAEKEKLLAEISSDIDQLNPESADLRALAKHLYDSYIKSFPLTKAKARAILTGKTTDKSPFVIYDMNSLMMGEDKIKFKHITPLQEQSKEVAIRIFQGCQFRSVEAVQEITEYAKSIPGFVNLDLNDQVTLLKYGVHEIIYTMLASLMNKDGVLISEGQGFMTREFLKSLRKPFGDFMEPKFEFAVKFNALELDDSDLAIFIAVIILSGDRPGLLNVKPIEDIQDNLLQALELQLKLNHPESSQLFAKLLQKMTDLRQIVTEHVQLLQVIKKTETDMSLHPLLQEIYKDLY
# PPARα = biological target: T3, PPARα (Homo sapiens, UniProt Q07869); conditions: cited from earlier work
# T3 sequence (Q07869 1-468): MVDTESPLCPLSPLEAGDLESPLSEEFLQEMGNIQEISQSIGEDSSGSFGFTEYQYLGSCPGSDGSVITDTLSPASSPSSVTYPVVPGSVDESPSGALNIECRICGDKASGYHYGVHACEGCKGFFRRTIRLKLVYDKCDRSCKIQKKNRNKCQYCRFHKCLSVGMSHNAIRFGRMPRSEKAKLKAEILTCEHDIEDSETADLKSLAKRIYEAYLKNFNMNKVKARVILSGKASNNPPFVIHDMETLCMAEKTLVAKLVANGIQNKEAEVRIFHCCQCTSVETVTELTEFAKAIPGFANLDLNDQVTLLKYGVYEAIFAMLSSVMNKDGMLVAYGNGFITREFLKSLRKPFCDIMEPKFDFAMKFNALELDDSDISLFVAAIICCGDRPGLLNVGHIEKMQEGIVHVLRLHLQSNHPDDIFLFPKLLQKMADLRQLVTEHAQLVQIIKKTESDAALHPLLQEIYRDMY
# [5] = tested on: peripheral mononuclear cells; conditions: cited from earlier work
# [6] = rats, 12 weeks; cited from earlier work
smiles,measurement,setting,value
CC#CCCCCCCCCCCCSCC [3-thia-15-heptadecyne],degradation time in vivo,[1],substantially increased degradation time
CCCCCCCCCCCCCCCC(=O)O [palmitic acid],mitochondrial β-oxidation activity,[2],0.47
"CCCCCCCCCCCCCCSCC(=O)O [TTA, tetradecylthioacetic acid]",effect on acyl-CoA oxidase activity,acyl-CoA oxidase,large increase
same,plasma cholesterol and triacylglycerol levels,[3],decreases
same,PPARβ activation,PPARβ,activate
same,effect on plasma triacylglycerol level,[4],reduces plasma triacylglycerol level
same,release of interleukin-2,interleukin-2,depressing the release
same,proliferation of cancer cell lines,cancer cell lines,reduce proliferation
same,PPARγ activation,PPARγ,activate
same,PPARα ligand,PPARα,potent ligands
same,PHA stimulated proliferation of peripheral mononuclear cells,[5],suppressing
same,hepatic and plasma content of monounsaturated fatty acids (mainly oleic acid),[6],nearly doubled
same,polyunsaturated fatty acids (mainly linoleic acid and DHA),[6],decreased

# — patent publication US10259833B2, “Natural lipids containing non-oxidizable fatty acids” (Bergen Teknologioverføring AS, priority 2013, dated 2019)
